Experimental data as given in patent publication US4857549A, “Antitumor compounds” (priority 1988, dated 1989).
Several values for one entry are separate records, joined by “and”; a condition that tells them apart may be missing. Equal entries are not always repeated. Where two headings read alike, the source gives them in different places.

Columns and labels:
[1] = tested on: B16 melanoma cells (highly metastatic subline, F10); assay: B16 melanoma in vitro cloning (colony forming) assay, 2 hour exposure; assay type: cell-based; settings: read-out: IC50: concentration which inhibits cloning efficiency of B16 melanoma cells by 50%
Protocol: Initially, the cytotoxic activity of the Formula (I) and Formula (IA) compounds used in the pharmaceutical compositions and methods of treatment of the instant invention was evaluated in vitro using B16 melanoma cells according to the following assay:
B16 melanoma (highly metastatic subline, F10) are used and maintained as monolayer cultures in Minimal Essential Media (Grand Island Biological Co., Grand Island, N.Y. ) supplemented with 10% calf serum, 1% antibiotics in a 5% CO2 humidified incubator at 37° C. Asynchronous populations of cells are harvested and replated to 5000 cells/plate in sterile 60 mm×15 mm petri plates. Plates are incubated overnight to allow attachment of the cells to the plate. Cells are treated with a Formula (I) or Formula (IA) compound or cisplatin under sterile conditions, allowed to react for 2 hours followed by aspiration of medium. Plates are washed one time with 5 ml of phosphate buffered saline (PBS), followed by the addition of 5 ml of fresh media. Plates are incubated for 5 days at 37° in a CO2 incubator. Viability is measured by the ability of a cell to form a colony of greater than 50 cells. Colonies are fixed with 0.5% crystal violet in 95% ethanol. Plates are dried and counted with a Biotran III Automatic Count Totalizer (New Brunswick Scientific Co., Edison, N.J.). Mean and standard deviation of triplicate samples are determined for each drug concentration. The data are analyzed by plotting the log of the survival fraction (number of colonies in drug treated plates/number of colonies in controls) versus the drug concentration.
^(a) concentration which inhibits cloning efficiency of B16 melanoma
cells by 50% on a 2hour exposure.

in vivo = settings: mouse, ip
[2] = ip M5076 reticulum cell sarcoma assay in mice; settings: mouse, in vivo, ip
Protocol: (§1) Another chemosensitive tumor model is intraperitoneally (ip) implanted M5076 reticulum cell sarcoma in mice. In this system B6D2F1 female mice are inoculated with 0.5 ml of a 10 percent weight:volume (w:v) brei of M5076 prepared from pooled subcutaneous (sc) tumors excised at about 21 days from c57B1/6 donor mice. Drugs are administered ip. Daily treatment is begun 24 hours after implantation and is continued for ten days. The treatment regimen for M5076 is more prolonged than for P388 because of the slower growth rate and longer control survival time of the M5076 tumor.

[3] = tested on: M5076 reticulum cell sarcoma; assay: ip M5076 reticulum cell sarcoma assay in mice; settings: for ILS max (maximum increase in lifespan): ip M5076 sarcoma mice, slash = separate experiments; for ILS max (maximum increase in lifespan) / MTD (maximally tolerated dose): ip qD × 10; for activity in the ip M5076 reticulum cell sarcoma assay: in words, based on Tables C and D; for MTD (maximally tolerated dose): B6D2F1 female mice
Protocol: as §1

ADJ-PC6 Plasmacytoma = assay: ADJ-PC6 plasmacytoma assay; settings: in words
Protocol: Tumor cells are carried by serial sc passage in BALB/c female mice and then collected aseptically on ca. Day 21 and minced in Hank's balanced salt solution. The cells are then dispersed by homogenization in a loose-fitting teflon glass homogenizer, and cell concentration is adjusted to 4×10^6 viable ([…]) cells per ml by hemocytometer counts. A total of 0.5 ml (2×10^6 cells) is implanted sc on the right flank of BALB/c female mice in groups of 8. Treatment is given ip on Days 1-10, and tumors are measured in perpendicular diameters with a vernier caliper on Day 18.
^(b) maximally tolerated dose for BALB/c female mice on an ip qD

[4] = tested on: mammary adenocarcinoma 16/c; assay: sc mammary adenocarcinoma 16/c assay
Protocol: The mammary adenocarcinoma 16/c tumor is implanted sc in C3H mice, and the Formula (I) compound is administered ip on days 1, 5, 9, 13 and 17. Tumors are measured 3 weeks after implantation, and activity is assessed by degree of tumor growth inhibition.

B16 melanoma = assay: in vivo ip B16 melanoma assay; settings: Table E, ip qD × 10
Protocol: The cytotoxic activity of several compounds of Formula (I) was evaluated in vivo using B16 melanoma cells according to the following assay:
In this system, groups of eight B6D2F1 mice are inoculated ip with 0.5 ml of a 10% (w:v) brei of B16 melanoma prepared from pooled sc tumors excised at 14.noteq.21 days from C67B1 /6 donor mice. Daily treatment is begun 24 hours after tumor implantation and is continued daily for 10 days. The route of drug administration is ip. The mice are monitored daily for survival for 60 days. Antitumor activity is assessed by prolongation of median survival time.

[5] = Table B, B6D2F1 female mice, ip qD × 5
[6] = Table B, ip P388 leukemia mice, ip days 1-5, slash-separated figures are separate experiments, compound 2: 35 experiments
[7] = Mus musculus, B16, Table AI, Formula (IA)
[8] = Table C, compound 2: seven experiments

SMILES | IC50 ([1]; Table A, Formula (I)) [µM] | MTD (maximally tolerated dose) (P388 leukemia; [5]) [mg/kg] | ILS (maximum increase in lifespan) (P388 leukemia; [6]) | IC50 [1, 7] [µM] | MTD (in vivo) [mg/kg] | other results
[Cl][Au][PH](C[PH]([Au][Cl])(c1ccccc1)c1ccccc1)(c1ccccc1)c1ccccc1 [Compound 1, μ-[1,3-Bis(Diphenylphosphino)Methane]Bis[Chlorogold(I)]] | 6 | 50 | 62% and 50% | – | – | –
[Cl][Au][PH](CCCC[PH]([Au][Cl])(c1ccccc1)c1ccccc1)(c1ccccc1)c1ccccc1 [Compound 4, μ-[1,4-Bis(Diphenylphosphino)Butane]Bis[Chlorogold(I)]] | 3 | – | 45% and 40% | – | – | MTD (maximally tolerated dose) (P388 leukemia; mouse, in vivo, ip): 6 mg/kg
C[C@H](CP(c1ccccc1)c1ccccc1)P(c1ccccc1)c1ccccc1 [Compound 36, R-(+)-bis(1,2-diphenylphosphino)propane] | – | – | – | 50 | 32 | –
C(=C/P(c1ccccc1)c1ccccc1)/P(c1ccccc1)c1ccccc1 [Compound 34, cis-bis(1,2-diphenylphosphino)ethylene] | – | – | – | 25 | 24 | MTD [2]: 5 mg/kg; ILS max (maximum increase in lifespan) ([3]; Table D): 57%; activity in the ip M5076 reticulum cell sarcoma assay [3]: good activity
[2H]c1c([2H])c([2H])c(P(CCP(c2c([2H])c([2H])c([2H])c([2H])c2[2H])c2c([2H])c([2H])c([2H])c([2H])c2[2H])c2c([2H])c([2H])c([2H])c([2H])c2[2H])c([2H])c1[2H] [Compound 43, 1,2-Ethanediyl-bis[di(phenyl-d5)phosphine]] | – | – | – | 50 | 24 | –
[Cl][Au][PH](CC[PH]([Au][Cl])(C1CCCCC1)C1CCCCC1)(C1CCCCC1)C1CCCCC1 [Compound 22, μ-[1,2-Bis(Dicyclohexylphosphino)Ethane]Bis[Chlorogold(I)]] | 14 | 16 | – | – | – | MTD (maximally tolerated dose) ([3]; Table C): 8 mg/kg; ILS max (maximum increase in lifespan) [3, 8]: 27%
c1ccc(P(CCCP(c2ccccc2)c2ccccc2)c2ccccc2)cc1 [Compound 37, bis(1,3-diphenylphosphino)propane] | – | – | – | 72 | 32 | –
[Cl][Au]([Cl])([Cl])[PH](CC[PH](c1ccccc1)(c1ccccc1)[Au]([Cl])([Cl])[Cl])(c1ccccc1)c1ccccc1 [Compound 12, μ-[1,2-Bis(Diphenylphosphino)Ethane]Bis[Trichlorogold(III)]] | 4 | 16 | 95% and 62% | – | – | MTD (maximally tolerated dose) ([3]; Table C): 8 mg/kg; ILS max (maximum increase in lifespan) [3, 8]: 74%
c1ccc(P(c2ccccc2)c2ccccc2P(c2ccccc2)c2ccccc2)cc1 [Compound 40, Bis(1,2-Diphenylphosphino)Benzene] | – | – | – | 28 | 32 | –
N.N.[Cl][Pt][Cl] [cisplatin, reference compound] | – | – | – | – | – | activity of positive control in ip M5076 ([3]; all experiments, active = average ≥25 percent ILS): active in all experiments; tumor growth inhibition by positive control (ADJ-PC6 Plasmacytoma): complete tumor growth inhibition; inhibition of growth of mammary adenocarcinoma 16/c by positive control ([4]; in words, generally produced): complete inhibition
[Cl][Au][PH](CCC[PH]([Au][Cl])(c1ccccc1)c1ccccc1)(c1ccccc1)c1ccccc1 [Compound 3, μ-[1,3-Bis(Diphenylphosphino)Propane]Bis[Chlorogold(I)]] | 2 | 8 | – | – | – | MTD (maximally tolerated dose) ([3]; Table C): 5 mg/kg; ILS max (maximum increase in lifespan) [3, 8]: 69%; activity in the ip M5076 reticulum cell sarcoma assay [3]: good activity
[Br][Au][PH](CC[PH]([Au][Br])(c1ccccc1)c1ccccc1)(c1ccccc1)c1ccccc1 [Compound 15] | – | – | 116% and 80% | – | – | ILS max (maximum increase in lifespan) [3, 8]: 69%; MTD (maximally tolerated dose) (B16 melanoma; B6D2F1 mice): 13 um/kg; ILS (maximum increase in lifespan) (B16 melanoma; ip B16 melanoma mice, slash = separate experiments): 49% and 41%; MTD (maximally tolerated dose) ([4]; Table F, C3H mice, intermittent ip regimen): 26 um/kg; Inhibition (tumor growth inhibition) ([4]; Table F, sc tumor, ip days 1, 5, 9, 13, 17, slash = separate experiments): 79%
[Cl][Au-][P+](CCCCC[P+]([Au-][Cl])(c1ccccc1)c1ccccc1)(c1ccccc1)c1ccccc1 [Compound 5, μ-[1,5-Bis(Diphenylphospinio)Pentane]Bis[Chlorogold(I)]] | 2 | 4 | 55% | – | – | –
CC(CP(c1ccccc1)c1ccccc1)P(c1ccccc1)c1ccccc1 (centres unmarked) [Compound 35, Bis(1,2-diphenylphosphino)propane] | – | – | – | 50 | 32 | MTD (maximally tolerated dose) ([3]; Table D): 24 mg/kg; ILS max (maximum increase in lifespan) ([3]; Table D): 62%
[Cl][Au][PH](C=C[PH]([Au][Cl])(c1ccccc1)c1ccccc1)(c1ccccc1)c1ccccc1 [Compound 7, μ-[Cis-1,2-Bis(Diphenylphosphino)Ethylene]Bis[Chlorogold(I)]] | 7 | 4 | 105% and 77% | – | – | MTD (maximally tolerated dose) ([3]; Table C): 3 mg/kg; ILS max (maximum increase in lifespan) [3, 8]: 90%; activity in the ip M5076 reticulum cell sarcoma assay [3]: good activity
[Cl][Au-][P+](CCCCCC[P+]([Au-][Cl])(c1ccccc1)c1ccccc1)(c1ccccc1)c1ccccc1 [Compound 6, μ-[1,6-Bis(Diphenylphosphino)Hexane]Bis[Chlorogold(I)]] | 2 | – | – | – | – | ILS (maximum increase in lifespan) (P388 leukemia; mouse, in vivo, ip): 40% and 35%; MTD (maximally tolerated dose) (P388 leukemia; mouse, in vivo, ip): 4 mg/kg
Fc1ccc(P(CCP(c2ccc(F)cc2)c2ccc(F)cc2)c2ccc(F)cc2)cc1 [Compound 45, 1,2-ethanediyl-bis[bis(4-fluorophenyl)phosphine]] | – | – | – | – | 8 | –
